Reference: patent US20220257698A1, “ANGIOTENSIN TYPE 2 (AT2) RECEPTOR AGONISTS FOR USE IN THE TREATMENT OF CANCER” (LANTHIOPEP B.V., priority 2019, published 2022)

Tests used:
[1] = biological target: tyrosine kinases (PTK) in colon carcinoma PDX lysates; assay: PamChip tyrosine kinase (PTK) activity profiling of colon carcinoma PDX tumor lysates; design: species or system human PDX grown in mice; Kinase score: scale not given here; conditions: for Kinase statistic: value<0 = higher activity in vehicle-treated tumors; for Kinase score: vehicle-treated vs KcAng(1-7)-treated tumors
Protocol: In particular, to determine the effect of treatment on kinase activities, Tyrosine (PTK) and Serine/Threonine (STK) PamChip®-based kinase activity profiling in lysates from colon carcinoma PDX was performed by PamGene International B.V., The Netherlands.
PamGene® kinase activity profiles were measured for vehicle-treated colon cancer PDX tumors (control, n=10) and KcAng(1-7)-treated colon cancer PDX tumors (treatment, n=10).
Frozen tissues of tumor samples were processed to make lysates followed by determination of tyrosine kinase and serine/threonine kinase activity profiles. Datasets were analyzed by PamGene bioinformatics toolbox, for example by using PamGene's method called Upstream Kinase Analysis.
Kinase Score was used for ranking kinases based on their significance and specificity in terms of the set of peptides used for the corresponding kinase. Kinase statistics indicates the overall change of the peptide set that represents the kinase. Kinase statistics value<0 indicates higher activity in vehicle-treated tumors.

[2] = test system: OvCa13329 ovarian cancer PDX model; assay: KcAng(1-7) on growth of ovarian carcinoma PDX OvCa13329 in mice; assay type: in vivo, NMRI nu/nu mice (human PDX); conditions: for optT/C: day 11 of the treatment
Protocol: In vivo studies were conducted at EPO GmbH Berlin. Large studies (FIG. 1A, 2, 3, 4, 5) comprised 3 groups of 10 mice/group and 5 animals as reserve, as outlined in Table 1. Smaller studies (FIG. 1B, 1C, 1D) comprised 2 groups of mice of 3 mice per group. The animals were allocated to the various treatment groups (e.g. 0.2 μg/kg and 30 μg/kg) with a maximum of 10 animals per group. […] The groups received subcutaneous (s.c.) drug injection (for max. 28 days) as outlined in the Table 1.
NMRI nu/nu mice were used in this study. The animals were female at age of 6 to 8 weeks. The respective PDX tumors were inoculated subcutaneously (s.c.), and the tumors were grown to achieve palpable tumor sizes before start of the respective treatments. The PDX included breast (MaCa4151), colon (Co9689A), head & neck (HN10309), lung (Lu7433) and ovarian (OvCa13329) cancer (Table 2).
Treatment with KcAng(1-7) was started with palpable tumors after the randomization of animals regarding tumor volume. KcAng(1-7) was applied s.c. by daily injections at […] or 30 μg/kg dose for a maximum of 28 days (or earlier as defined by the humane end point for the study).
KcAng(1-7) was prepared as follows: The compounds was suspended in sterile PBS resulting in a clear solution. The remains of this formulation were stored at 4° C.
Tumor growth stimulatory or inhibitory activity of the KcAng(1-7) was evaluated by determination of tumor volumes (TV). During the study, tumor volumes and body weight were measured twice a week, and the ratio of the mean tumor volumes between the compound-treated group and the vehicle-treated group (T/C) was calculated.
Tumor volume=(tumor width)×(tumor width)×(tumor length)+2
T/C=T÷C • T: Mean estimated tumor volume of the compound-treated group • C: Mean estimated tumor volume of the vehicle-treated group

[3] = Gr. B 0.2 μg/kg/d s.c., Day 7 (Meas. 1)
[4] = Gr. B 0.2 μg/kg/d s.c., Day 11 (Meas. 2)
[5] = Gr. B 0.2 μg/kg/d s.c., Day 14 (Meas. 3)
[6] = Gr. B 0.2 μg/kg/d s.c., Day 18 (Meas. 4)
[7] = Gr. B 0.2 μg/kg/d s.c., Day 21 (Meas. 5)
[8] = Gr. C 30 μg/kg/d s.c., Day 7 (Meas. 1)
[9] = Gr. C 30 μg/kg/d s.c., Day 11 (Meas. 2)
[10] = Gr. C 30 μg/kg/d s.c., Day 14 (Meas. 3)
[11] = Gr. C 30 μg/kg/d s.c., Day 18 (Meas. 4)
[12] = Gr. C 30 μg/kg/d s.c., Day 21 (Meas. 5)

## Lys-Asp-Arg-Val-Abu/Ala-Ile-His-Abu/Ala (KDRVAIHA; not fully specified; cyclic thioether (Abu/Ala bridge); VARIANT (5)..(5) /replace=“Abu”; VARIANT (8)..(8) /replace=“Abu”; SITE (1)..(8) /note=“Variant residues given in the sequence have no preference with respect to those in the annotations for variant positions”) [KcAng(1-7)]
[1]; kinase CCK4/PTK7
  Kinase statistic: −0.58
  Kinase score: 2.23
[1]; kinase EPHA1
  Kinase statistic: −0.52
  Kinase score: 2.01
[1]; kinase EPHA2
  Kinase statistic: −0.50
  Kinase score: 1.96
[1]; kinase EPHA3
  Kinase statistic: −0.55
  Kinase score: 2.38
[1]; kinase EPHA4
  Kinase statistic: −0.52
  Kinase score: 2.55
[1]; kinase EPHA8
  Kinase statistic: −0.51
  Kinase score: 1.71
[1]; kinase FER
  Kinase statistic: −0.51
  Kinase score: 2.49
[1]; kinase FES
  Kinase statistic: −0.47
  Kinase score: 1.84
[1]; kinase FGFR1
  Kinase statistic: −0.49
  Kinase score: 2.39
[1]; kinase FGFR2
  Kinase statistic: −0.47
  Kinase score: 1.82
[1]; kinase FGFR3
  Kinase statistic: −0.48
  Kinase score: 1.89
[1]; kinase HER2
  Kinase statistic: −0.47
  Kinase score: 2.68
[1]; kinase HER4
  Kinase statistic: −0.47
  Kinase score: 2.11
[1]; kinase JAK1~B
  Kinase statistic: −0.49
  Kinase score: 1.70
[1]; kinase LMR1
  Kinase statistic: −0.71
  Kinase score: 4.10
[1]; kinase MER
  Kinase statistic: −0.44
  Kinase score: 1.74
[1]; kinase MET
  Kinase statistic: −0.46
  Kinase score: 2.16
[1]; kinase TEC
  Kinase statistic: −0.44
  Kinase score: 1.79
[1]; kinase TXK
  Kinase statistic: −0.46
  Kinase score: 2.05
[1]; kinase TYRO3/SKY
  Kinase statistic: −0.45
  Kinase score: 2.03
[2]; 0.2 μg/kg
  optT/C: 55.8%
[2]; 30 μg/kg
  optT/C: 51%
[2]; 0.2 and 30 μg/kg, 15 days
  effect on tumor volume: significant reduction in tumor volume
[2]; [3]
  RTV Mean: 1
  RTV Median: 1
  T/C: 102.4%
  Tumor Vol. Mean: 0.122 cm^3
  Tumor Vol. Median: 0.123 cm^3
[2]; [4]
  RTV Mean: 1.6
  RTV Median: 1.5
  T/C: 55.8%
  Tumor Vol. Mean: 0.192 cm^3
  Tumor Vol. Median: 0.181 cm^3
[2]; [5]
  RTV Mean: 3.1
  RTV Median: 3
  T/C: 68.5%
  Tumor Vol. Mean: 0.384 cm^3
  Tumor Vol. Median: 0.337 cm^3
[2]; [6]
  RTV Mean: 8.5
  RTV Median: 8
  T/C: 73.9%
  Tumor Vol. Mean: 0.985 cm^3
  Tumor Vol. Median: 1.015 cm^3
[2]; [7]
  RTV Mean: 13.4
  RTV Median: 11.9
  T/C: 79.3%
  Tumor Vol. Mean: 1.547 cm^3
  Tumor Vol. Median: 1.398 cm^3
[2]; [8]
  RTV Mean: 1
  RTV Median: 1
  T/C: 97%
  Tumor Vol. Mean: 0.116 cm^3
  Tumor Vol. Median: 0.115 cm^3
[2]; [9]
  RTV Mean: 1.6
  RTV Median: 1.6
  T/C: 51.1%
  Tumor Vol. Mean: 0.176 cm^3
  Tumor Vol. Median: 0.182 cm^3
[2]; [10]
  RTV Mean: 2.6
  RTV Median: 2.7
  T/C: 54.9%
  Tumor Vol. Mean: 0.308 cm^3
  Tumor Vol. Median: 0.33 cm^3
[2]; [11]
  RTV Mean: 8.4
  RTV Median: 8.4
  T/C: 72.2%
  Tumor Vol. Mean: 0.962 cm^3
  Tumor Vol. Median: 0.995 cm^3
[2]; [12]
  RTV Mean: 12.6
  RTV Median: 13
  T/C: 73.9%
  Tumor Vol. Mean: 1.442 cm^3
  Tumor Vol. Median: 1.503 cm^3
